Results on 42 targets are retold here after the supplement of paper PMC12463676, “Small-molecule dissolution of stress granules by redox modulation benefits ALS models” (Nature Chemical Biology, 2025).

Compound in one experiment: NC(=O)CCCCC1CCSS1 [lipoamide]
The experiment is described as follows: thermal stability z-score vs DMSO; higher = more thermally stabilized by treatment. The settings on record: HeLa, lipoamide concentration 100 µM. As for the experimental part: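 Cellular thermal proteome profiling in HeLa cells. Cells were treated with 100 µM lipoamide for 1 h, with or without 1 mM arsenate for a further 1 h, then heated to ten temperatures (37-66.3 °C), and soluble protein was quantified by TMT mass spectrometry relative to 0.1% DMSO controls. The thermal stability score (sum of log2 fold changes minus the abundance score) was transformed to a z-score; mean of n = 3 experiments.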

Compound in a further experiment: O=[As]([O-])(O)O.[K+] [potassium arsenate]
The experiment is described as above. Particulars: HeLa; arsenate concentration 1 mM. As for the experimental part:
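Cellular thermal proteome profiling in HeLa cells treated with 1 mM arsenate for 1 h (DMSO pretreatment), heated to ten temperatures (37-66.3 °C). Soluble protein was quantified by TMT mass spectrometry relative to DMSO controls; the thermal stability score was transformed to a z-score; mean of n = 3 experiments.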

[1] abbreviates: arsenate co-treatment: 1 mM arsenate 1 h.
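Note: each temperature applied for 3 min, abundance score taken as mean log2 fold change at the two lowest temperatures, z-score obtained by mean subtraction and division by SD.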

UniProt Q9NRN9, sequence (Q9NRN9 whole entry): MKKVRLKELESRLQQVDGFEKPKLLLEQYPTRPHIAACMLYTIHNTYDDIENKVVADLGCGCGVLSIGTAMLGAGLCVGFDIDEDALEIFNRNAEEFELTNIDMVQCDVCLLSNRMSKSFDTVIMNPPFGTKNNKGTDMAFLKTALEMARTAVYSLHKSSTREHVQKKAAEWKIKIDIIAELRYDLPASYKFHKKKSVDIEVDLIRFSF
UniProt Q8NFW8, sequence (Q8NFW8 whole entry): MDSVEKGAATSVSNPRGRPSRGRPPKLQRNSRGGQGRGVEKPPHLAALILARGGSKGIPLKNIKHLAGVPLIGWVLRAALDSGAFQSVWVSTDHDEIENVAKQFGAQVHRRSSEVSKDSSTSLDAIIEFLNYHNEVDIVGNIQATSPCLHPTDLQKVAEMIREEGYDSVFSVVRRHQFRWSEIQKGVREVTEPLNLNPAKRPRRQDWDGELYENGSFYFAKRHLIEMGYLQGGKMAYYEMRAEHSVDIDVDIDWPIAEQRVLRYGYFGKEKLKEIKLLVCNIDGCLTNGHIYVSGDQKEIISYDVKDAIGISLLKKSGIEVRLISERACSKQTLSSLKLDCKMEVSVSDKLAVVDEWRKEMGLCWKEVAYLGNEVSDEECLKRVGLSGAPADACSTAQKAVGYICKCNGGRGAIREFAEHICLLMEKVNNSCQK
UniProt Q9NPA3, sequence (Q9NPA3 whole entry): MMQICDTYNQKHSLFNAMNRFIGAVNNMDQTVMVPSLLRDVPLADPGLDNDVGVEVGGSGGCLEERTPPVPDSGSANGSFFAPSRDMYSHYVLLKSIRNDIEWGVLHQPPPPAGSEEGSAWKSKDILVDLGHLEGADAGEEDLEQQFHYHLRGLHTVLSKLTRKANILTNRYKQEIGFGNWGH
UniProt P67812, sequence (P67812 whole entry): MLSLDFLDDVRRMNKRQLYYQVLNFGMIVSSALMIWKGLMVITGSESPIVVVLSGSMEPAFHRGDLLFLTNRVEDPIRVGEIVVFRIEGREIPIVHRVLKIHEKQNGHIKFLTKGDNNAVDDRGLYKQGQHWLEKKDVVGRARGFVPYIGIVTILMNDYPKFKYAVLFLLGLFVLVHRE
UniProt Q96QD5, sequence (Q96QD5 whole entry): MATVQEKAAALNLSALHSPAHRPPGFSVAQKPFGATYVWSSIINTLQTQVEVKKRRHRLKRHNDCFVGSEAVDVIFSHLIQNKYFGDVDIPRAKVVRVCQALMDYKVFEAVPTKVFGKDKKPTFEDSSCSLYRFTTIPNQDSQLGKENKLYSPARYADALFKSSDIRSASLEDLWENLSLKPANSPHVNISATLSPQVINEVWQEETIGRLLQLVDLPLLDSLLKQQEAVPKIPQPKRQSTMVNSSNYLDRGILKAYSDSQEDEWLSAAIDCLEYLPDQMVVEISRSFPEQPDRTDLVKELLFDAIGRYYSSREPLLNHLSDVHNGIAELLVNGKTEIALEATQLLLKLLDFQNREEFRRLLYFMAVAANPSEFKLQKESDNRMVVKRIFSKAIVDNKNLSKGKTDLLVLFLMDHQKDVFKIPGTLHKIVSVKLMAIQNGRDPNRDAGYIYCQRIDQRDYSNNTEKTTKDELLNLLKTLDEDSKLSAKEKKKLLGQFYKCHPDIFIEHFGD
UniProt Q9HC44, sequence (Q9HC44 whole entry): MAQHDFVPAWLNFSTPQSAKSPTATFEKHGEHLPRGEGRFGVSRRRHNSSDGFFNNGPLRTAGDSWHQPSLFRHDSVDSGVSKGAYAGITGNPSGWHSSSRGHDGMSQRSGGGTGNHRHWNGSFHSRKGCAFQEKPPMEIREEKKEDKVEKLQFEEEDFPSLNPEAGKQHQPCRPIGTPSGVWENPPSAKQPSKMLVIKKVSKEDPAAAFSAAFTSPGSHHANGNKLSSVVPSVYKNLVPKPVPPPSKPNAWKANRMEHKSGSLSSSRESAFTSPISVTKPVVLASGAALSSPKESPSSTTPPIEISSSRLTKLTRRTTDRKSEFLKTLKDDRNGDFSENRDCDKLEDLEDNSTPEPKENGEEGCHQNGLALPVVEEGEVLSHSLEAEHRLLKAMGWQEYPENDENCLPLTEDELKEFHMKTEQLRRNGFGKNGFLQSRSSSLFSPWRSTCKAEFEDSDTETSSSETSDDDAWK
UniProt Q9BVL2, sequence (Q9BVL2 whole entry): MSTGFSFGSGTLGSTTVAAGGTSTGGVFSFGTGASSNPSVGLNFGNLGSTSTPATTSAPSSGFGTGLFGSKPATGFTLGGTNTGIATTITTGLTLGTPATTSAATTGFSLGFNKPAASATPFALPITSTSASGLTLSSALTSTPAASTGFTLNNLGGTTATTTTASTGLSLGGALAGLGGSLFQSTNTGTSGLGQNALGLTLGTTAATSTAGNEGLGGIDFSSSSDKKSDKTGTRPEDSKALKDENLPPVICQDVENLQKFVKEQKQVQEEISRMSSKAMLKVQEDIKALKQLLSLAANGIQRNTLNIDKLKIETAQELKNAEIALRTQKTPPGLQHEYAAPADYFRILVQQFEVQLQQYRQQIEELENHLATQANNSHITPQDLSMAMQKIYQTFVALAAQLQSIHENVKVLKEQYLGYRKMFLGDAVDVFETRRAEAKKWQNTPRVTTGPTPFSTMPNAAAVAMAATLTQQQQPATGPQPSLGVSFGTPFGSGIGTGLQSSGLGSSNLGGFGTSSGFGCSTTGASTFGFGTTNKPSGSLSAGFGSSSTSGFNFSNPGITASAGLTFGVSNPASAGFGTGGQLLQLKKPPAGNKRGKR
UniProt Q13435, sequence (Q13435 whole entry): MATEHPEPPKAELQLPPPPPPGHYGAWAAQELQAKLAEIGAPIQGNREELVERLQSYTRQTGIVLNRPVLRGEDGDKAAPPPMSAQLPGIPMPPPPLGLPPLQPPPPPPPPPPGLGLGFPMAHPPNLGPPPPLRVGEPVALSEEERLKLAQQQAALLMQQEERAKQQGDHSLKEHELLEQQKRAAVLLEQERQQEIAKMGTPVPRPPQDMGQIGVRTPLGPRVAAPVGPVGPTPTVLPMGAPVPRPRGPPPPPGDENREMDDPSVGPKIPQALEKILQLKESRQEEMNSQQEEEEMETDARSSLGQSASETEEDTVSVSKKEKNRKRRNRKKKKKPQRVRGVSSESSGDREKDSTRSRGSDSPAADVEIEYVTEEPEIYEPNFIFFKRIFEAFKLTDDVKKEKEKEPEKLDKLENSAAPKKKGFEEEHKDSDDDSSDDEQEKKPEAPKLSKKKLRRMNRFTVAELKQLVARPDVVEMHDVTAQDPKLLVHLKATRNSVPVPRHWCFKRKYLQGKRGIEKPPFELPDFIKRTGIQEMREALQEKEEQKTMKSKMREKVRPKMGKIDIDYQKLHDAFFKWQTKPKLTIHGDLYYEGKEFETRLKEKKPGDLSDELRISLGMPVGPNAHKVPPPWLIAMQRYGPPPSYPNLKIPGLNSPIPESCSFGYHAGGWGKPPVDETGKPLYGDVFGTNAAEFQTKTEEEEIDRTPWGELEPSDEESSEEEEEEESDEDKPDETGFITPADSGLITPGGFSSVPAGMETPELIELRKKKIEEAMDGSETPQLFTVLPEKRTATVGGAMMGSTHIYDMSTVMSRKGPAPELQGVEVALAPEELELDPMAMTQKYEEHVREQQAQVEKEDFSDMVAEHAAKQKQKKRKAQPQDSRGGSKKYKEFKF
UniProt P56381, sequence (P56381 whole entry): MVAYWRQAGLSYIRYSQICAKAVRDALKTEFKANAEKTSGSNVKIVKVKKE
UniProt Q9NRM2, sequence (Q9NRM2 whole entry): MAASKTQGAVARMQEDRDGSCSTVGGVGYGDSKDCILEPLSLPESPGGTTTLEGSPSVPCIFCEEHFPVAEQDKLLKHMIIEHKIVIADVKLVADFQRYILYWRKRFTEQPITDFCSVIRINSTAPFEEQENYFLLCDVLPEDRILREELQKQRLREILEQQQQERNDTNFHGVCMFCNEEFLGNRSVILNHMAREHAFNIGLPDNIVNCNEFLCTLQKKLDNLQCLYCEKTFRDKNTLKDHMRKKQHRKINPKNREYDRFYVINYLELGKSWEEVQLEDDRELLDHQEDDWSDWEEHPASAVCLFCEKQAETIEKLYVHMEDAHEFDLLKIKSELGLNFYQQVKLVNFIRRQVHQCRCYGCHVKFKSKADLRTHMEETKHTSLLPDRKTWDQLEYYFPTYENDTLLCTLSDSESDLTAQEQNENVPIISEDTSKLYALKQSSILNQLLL
UniProt Q5JPH6, sequence (Q5JPH6 whole entry): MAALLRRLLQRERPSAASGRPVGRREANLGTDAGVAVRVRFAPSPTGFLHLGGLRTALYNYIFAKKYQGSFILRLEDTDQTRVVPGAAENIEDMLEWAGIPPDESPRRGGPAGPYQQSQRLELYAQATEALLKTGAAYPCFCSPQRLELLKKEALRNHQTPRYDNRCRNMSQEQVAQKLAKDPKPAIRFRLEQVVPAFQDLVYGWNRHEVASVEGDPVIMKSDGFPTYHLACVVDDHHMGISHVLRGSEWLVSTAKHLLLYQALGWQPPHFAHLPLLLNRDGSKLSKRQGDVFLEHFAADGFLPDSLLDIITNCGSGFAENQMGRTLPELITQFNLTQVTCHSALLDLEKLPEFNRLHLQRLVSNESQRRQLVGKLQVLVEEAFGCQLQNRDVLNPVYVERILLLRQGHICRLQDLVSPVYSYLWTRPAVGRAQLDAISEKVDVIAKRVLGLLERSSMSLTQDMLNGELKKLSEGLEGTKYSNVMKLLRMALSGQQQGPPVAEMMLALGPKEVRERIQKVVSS
UniProt Q9Y617, sequence (Q9Y617 whole entry): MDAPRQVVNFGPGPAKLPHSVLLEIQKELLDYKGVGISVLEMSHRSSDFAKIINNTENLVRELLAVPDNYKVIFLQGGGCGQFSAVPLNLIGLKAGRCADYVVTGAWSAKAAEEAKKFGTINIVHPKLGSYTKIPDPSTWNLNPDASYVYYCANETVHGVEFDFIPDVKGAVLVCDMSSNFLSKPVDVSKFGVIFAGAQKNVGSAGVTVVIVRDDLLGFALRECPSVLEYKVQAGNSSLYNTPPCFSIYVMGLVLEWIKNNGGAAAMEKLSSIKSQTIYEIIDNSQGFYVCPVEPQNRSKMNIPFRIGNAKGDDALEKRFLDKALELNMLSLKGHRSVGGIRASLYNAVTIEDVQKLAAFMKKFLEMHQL

With TAB2 (UniProt Q9NYJ8), the values for the thermal stability z-score with lipoamide (setting [1]), with lipoamide (arsenate co-treatment: none) and with potassium arsenate were 0.0348, -0.0384 and -0.292, respectively.

For the target DDHD2 (UniProt O94830), the thermal stability z-score with lipoamide (setting [1]) was 0.3; with lipoamide (arsenate co-treatment: none), -0.141; with potassium arsenate it was -0.0424.

For the target PPP3CB (UniProt P16298), the figures for the thermal stability z-score with lipoamide (setting [1]), in the experiment with lipoamide (arsenate co-treatment: none) and with potassium arsenate were -0.386, -2.04 and -0.199, respectively.

On to COPS8 (UniProt Q99627), for which the thermal stability z-score with lipoamide (setting [1]) was 0.0678; in the experiment with lipoamide (arsenate co-treatment: none), -0.053; with potassium arsenate it was 0.171.

With RAB22A (UniProt Q9UL26), the thermal stability z-score with lipoamide (setting [1]) was 0.482; with lipoamide (arsenate co-treatment: none), 0.207; in the experiment with potassium arsenate, -0.396.

As for KPNA2 (UniProt P52292), the thermal stability z-score is 0.22 in the experiment with lipoamide (setting [1]), -0.118 in the experiment with lipoamide (arsenate co-treatment: none) and -0.353 with potassium arsenate.

As to SF3B2 (UniProt Q13435), the thermal stability z-score in the experiment with lipoamide (setting [1]) was 0.498; with lipoamide (arsenate co-treatment: none) it was 0.403; with potassium arsenate, -0.135.

TRAF6 (UniProt Q9Y4K3): the figures for the thermal stability z-score with lipoamide (setting [1]), with lipoamide (arsenate co-treatment: none) and with potassium arsenate were -0.0771, -0.0851 and -0.00689, respectively.

Regarding TRMT6 (UniProt Q9UJA5), the thermal stability z-score amounted to 0.481 with lipoamide (setting [1]), 0.683 in the experiment with lipoamide (arsenate co-treatment: none) and 0.0561 with potassium arsenate.

Regarding EARS2 (UniProt Q5JPH6), the results for the thermal stability z-score with lipoamide (setting [1]), with lipoamide (arsenate co-treatment: none) and with potassium arsenate were -1, -0.188 and 0.0121, respectively.

In the case of CDK4 (UniProt P11802), the results for the thermal stability z-score in the experiment with lipoamide (setting [1]), with lipoamide (arsenate co-treatment: none) and with potassium arsenate were 1.15, 1.03 and 0.783, respectively.

As for GPBP1L1 (UniProt Q9HC44), the thermal stability z-score with lipoamide (setting [1]) was -0.469; in the experiment with lipoamide (arsenate co-treatment: none) it was -0.326; in the experiment with potassium arsenate, 0.365.

Turning to SOD1 (UniProt P00441), the thermal stability z-score with lipoamide (setting [1]) is -0.57; with lipoamide (arsenate co-treatment: none), -0.258; with potassium arsenate, -0.236.

Regarding ZNF277 (UniProt Q9NRM2), the thermal stability z-score was 0.365 with lipoamide (setting [1]), 0.166 with lipoamide (arsenate co-treatment: none) and -0.515 with potassium arsenate.

With CMAS (UniProt Q8NFW8), the thermal stability z-score with lipoamide (setting [1]) was -0.0844; with lipoamide (arsenate co-treatment: none) it was -0.141; with potassium arsenate it was -0.438.

Consider ARAF (UniProt P10398), for which the thermal stability z-score with lipoamide (setting [1]) was -0.299; with lipoamide (arsenate co-treatment: none) it was -0.252; with potassium arsenate, -0.275.

For NCAPG2 (UniProt Q86XI2), the thermal stability z-score with lipoamide (setting [1]) is -0.00836; with lipoamide (arsenate co-treatment: none) it was -0.0717; in the experiment with potassium arsenate, -0.267.

With MID1IP1 (UniProt Q9NPA3), the results for the thermal stability z-score with lipoamide (setting [1]), with lipoamide (arsenate co-treatment: none) and with potassium arsenate were -0.135, 0.206 and 0.151, respectively.

On to EMC4 (UniProt Q5J8M3), for which the thermal stability z-score in the experiment with lipoamide (setting [1]) is -0.342; with lipoamide (arsenate co-treatment: none), 0.294; in the experiment with potassium arsenate, 0.26.

Turning to PIGT (UniProt Q969N2), the thermal stability z-score with lipoamide (setting [1]) was -3.54; with lipoamide (arsenate co-treatment: none), -2.49; in the experiment with potassium arsenate it was -0.105.

As to CEP44 (UniProt Q9C0F1), the thermal stability z-score was 0.18 with lipoamide (setting [1]), 0.0577 in the experiment with lipoamide (arsenate co-treatment: none) and 0.0867 in the experiment with potassium arsenate.

Regarding WDFY1 (UniProt Q8IWB7), the figures for the thermal stability z-score with lipoamide (setting [1]), with lipoamide (arsenate co-treatment: none) and in the experiment with potassium arsenate were -0.112, -0.423 and -1.85, respectively.

Consider NUP58 (UniProt Q9BVL2), for which the thermal stability z-score in the experiment with lipoamide (setting [1]) came to 2.2; with lipoamide (arsenate co-treatment: none), 0.178; with potassium arsenate, 0.865.

Consider ADRM1 (UniProt Q16186), for which the thermal stability z-score amounted to 1.21 with lipoamide (setting [1]), 0.976 with lipoamide (arsenate co-treatment: none) and 0.823 with potassium arsenate.

For the target DEPDC7 (UniProt Q96QD5), the thermal stability z-score is -0.328 with lipoamide (setting [1]), -0.237 with lipoamide (arsenate co-treatment: none) and -0.221 in the experiment with potassium arsenate.

As to OSBP (UniProt P22059), the values for the thermal stability z-score with lipoamide (setting [1]), with lipoamide (arsenate co-treatment: none) and with potassium arsenate were 0.983, 0.414 and -1.62, respectively.

With SEC11A (UniProt P67812), the thermal stability z-score is -2.78 with lipoamide (setting [1]), -1.58 with lipoamide (arsenate co-treatment: none) and 0.475 in the experiment with potassium arsenate.

In the case of YKT6 (UniProt O15498), the thermal stability z-score with lipoamide (setting [1]) was -0.198; with lipoamide (arsenate co-treatment: none) it was 0.453; with potassium arsenate, -0.597.

Regarding PSAT1 (UniProt Q9Y617), the figures for the thermal stability z-score in the experiment with lipoamide (setting [1]), with lipoamide (arsenate co-treatment: none) and in the experiment with potassium arsenate were 0.659, 0.402 and -0.653, respectively.

In the case of HPS6 (UniProt Q86YV9), the thermal stability z-score is 0.00908 with lipoamide (setting [1]), 0.132 with lipoamide (arsenate co-treatment: none) and -0.0451 with potassium arsenate.

Take DPP3 (UniProt Q9NY33): the thermal stability z-score in the experiment with lipoamide (setting [1]) is 0.77; in the experiment with lipoamide (arsenate co-treatment: none), 0.569; with potassium arsenate it was -0.00156.

Consider UBIAD1 (UniProt Q9Y5Z9), for which the values for the thermal stability z-score with lipoamide (setting [1]), in the experiment with lipoamide (arsenate co-treatment: none) and in the experiment with potassium arsenate were -0.487, -0.317 and -0.362, respectively.

UBE4A (UniProt Q14139): the thermal stability z-score in the experiment with lipoamide (setting [1]) was -0.217; in the experiment with lipoamide (arsenate co-treatment: none), -0.148; in the experiment with potassium arsenate it was 0.86.

On to ITGB1 (UniProt P05556), for which the thermal stability z-score with lipoamide (setting [1]) was -0.614; in the experiment with lipoamide (arsenate co-treatment: none), -0.431; in the experiment with potassium arsenate it was 0.139.

Turning to METTL5 (UniProt Q9NRN9), the thermal stability z-score in the experiment with lipoamide (setting [1]) is 0.768; with lipoamide (arsenate co-treatment: none), -0.318; in the experiment with potassium arsenate it was 0.233.

Regarding EDF1 (UniProt O60869), the results for the thermal stability z-score in the experiment with lipoamide (setting [1]), with lipoamide (arsenate co-treatment: none) and in the experiment with potassium arsenate were 0.657, 0.578 and 0.199, respectively.

With ATP5E (UniProt P56381), the thermal stability z-score was determined as 0.582 with lipoamide (setting [1]), 0.508 in the experiment with lipoamide (arsenate co-treatment: none) and 0.00933 in the experiment with potassium arsenate.

On to OTUD5 (UniProt Q96G74), for which the thermal stability z-score is -0.721 in the experiment with lipoamide (setting [1]), 0.294 with lipoamide (arsenate co-treatment: none) and 1.72 with potassium arsenate.

With RPL7 (UniProt P18124), the thermal stability z-score with lipoamide (setting [1]) was 1.02; in the experiment with lipoamide (arsenate co-treatment: none), 0.379; with potassium arsenate, -0.13.

With METTL2B (UniProt Q6P1Q9), the results for the thermal stability z-score with lipoamide (setting [1]), with lipoamide (arsenate co-treatment: none) and in the experiment with potassium arsenate were -0.019, -0.11 and -0.0568, respectively.

In the case of HINT1 (UniProt P49773), the thermal stability z-score with lipoamide (setting [1]) was 1.13; with lipoamide (arsenate co-treatment: none) it was 0.532; with potassium arsenate, -0.189.

For BCL7B (UniProt Q9BQE9), the thermal stability z-score amounted to 3.46 in the experiment with lipoamide (setting [1]), 2.78 with lipoamide (arsenate co-treatment: none) and 0.537 in the experiment with potassium arsenate.
